The results in this text go back to US12084472B2 (Ardelyx, Inc., priority 2015, dated 2024).

For this experiment, the target named is T1, human TGR5 (Homo sapiens, UniProt Q8TDU6).
T1 construct: expressed in transfected cells; host or cells: HEK293
T1 sequence (Q8TDU6 1-330): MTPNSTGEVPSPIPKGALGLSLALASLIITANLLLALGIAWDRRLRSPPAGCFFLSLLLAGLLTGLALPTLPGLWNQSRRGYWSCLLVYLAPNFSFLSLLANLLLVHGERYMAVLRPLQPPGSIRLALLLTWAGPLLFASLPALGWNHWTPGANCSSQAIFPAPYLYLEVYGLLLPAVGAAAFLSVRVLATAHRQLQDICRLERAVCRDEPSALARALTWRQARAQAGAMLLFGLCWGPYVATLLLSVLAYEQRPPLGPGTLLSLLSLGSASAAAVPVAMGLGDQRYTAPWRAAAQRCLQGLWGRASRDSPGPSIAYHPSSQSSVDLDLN
Nature of the experiment: Cell-based TGR5 assay (cAMP generation, HTRF). The settings on record: HEK293 cells stably transfected with human TGR5; cAMP by HTRF; 30 minutes at 37° C.; read-out: pEC50 Human TGR5 (converted). The method, then:
A primary cell-based assay utilized HEK293 cells stably transfected with a gene encoding human TGR5. Cells were treated with candidate TGR5 activators and assessed for increased intercellular levels of cAMP.
TGR5-mediated cAMP generation was measured using a homogeneous time resolved fluorescence (HTRF) detection method (Cisbio). Test compounds were dissolved in DMSO to a final concentration of 10 mM. Serial 3-fold dilutions of the stock solution were made in DMSO, and these solutions were diluted 100-fold into Hanks Balanced Salt Solution supplemented with 10 mM HEPES pH 7.4, 0.003% Tween 20 and 0.5 mM isobutyl methylxanthine. Five microliters of diluted test compounds were added to wells of a black 384 well plate.
Cells grown overnight at 37° C./5% CO2 were harvested and resuspended in Hanks Balanced Salt Solution containing 10 mM HEPES to a concentration of […]. Five microliters (2500 cells) were dispensed into each well of the 384 well plate containing compound dilutions and incubated at 37° C. for 30 minutes. Each compound was tested in duplicate at 12 concentrations ranging from 0.05 nM to 10 μM.
Following incubation with test compounds, cAMP was detected through the successive addition of 5 μL each of cAMP labeled with the modified allophyocyanin dye d2 (cAMP-d2) and cryptate-labeled anti-cAMP in lysis buffer, and reading HTRF per the manufacturer's instructions.
A standard curve was used to convert the raw HTRF data into [cAMP]. The concentration of cAMP was plotted against log [test compound] and the resulting curves were fit to a 3-parameter logistical equation using GraphPad Prism to determine pEC50 (the negative log of the EC50) and the magnitude of the response.
A general note: TR-FRET usually uses a lanthanide donor and a delayed reading to cut background.
For `O=C(O)[C@@H](O)[C@@H](O)[C@H](O)[C@@H](O)CNC1CCN(C(=O)CCCCc2cc(Cl)c(COC3(c4cnccc4-c4ccccc4OC4CC4)CC3)cc2Cl)CC1` (stereo in doubt) [Compound I-173, (2S,3S,4R,5S)-6-[(1-{5-[2,5-dichloro-4-({1-[4-(2-cyclopropoxyphenyl)pyridin-3-yl]cyclopropoxy}methyl)phenyl]pentanoyl}piperidin-4-yl)amino]-2,3,4,5-tetrahydroxyhexanoic acid], the EC50 is below 100 nM. With `Cc1cc(COC2(c3cnccc3-c3ccccc3OC3CC3)CC2)c(Cl)cc1CCCCNC(=O)[C@@H](O)[C@@H](O)[C@H](O)[C@@H](O)CN1CCOCC1` (stereo in doubt) [Compound I-176, (2S,3S,4R,5S)-N-{4-[5-chloro-4-({1-[4-(2-cyclopropoxyphenyl)pyridin-3-yl]cyclopropoxy}methyl)-2-methylphenyl]butyl}-2,3,4,5-tetrahydroxy-6-(morpholin-4-yl)hexanamide], the EC50 was below 100 nM. For `O=C(NCCCCc1cc(Cl)c(COC2(c3cnccc3-c3ccccc3OC3CC3)CC2)cc1Cl)[C@@H](O)[C@@H](O)[C@H](O)[C@@H](O)CN1CCOCC1` (stereo in doubt) [Compound I-179, (2S,3S,4R,5S)-N-{4-[2,5-dichloro-4-({1-[4-(2-cyclopropoxyphenyl)pyridin-3-yl]cyclopropoxy}methyl)phenyl]butyl}-2,3,4,5-tetrahydroxy-6-(morpholin-4-yl)hexanamide], the EC50 is below 100 nM. On to `N[C@@H]1[C@@H](O)[C@@H](O[C@@H]2[C@@H](O)[C@H](O[C@H]3O[C@H](CNC(=O)CCCCc4cc(Cl)c(COC5(c6cnccc6-c6ccccc6OC6CC6)CC5)cc4Cl)[C@@H](O)[C@H](O)[C@H]3O)[C@@H](N)C[C@H]2N)O[C@H](CO)[C@H]1O` (stereo in doubt) [Compound I-181, N-{[(2R,3S,4S,5R,6R)-6-{[(1R,2R,3S,4R,6S)-4,6-diamino-3-{[(2S,3R,4S,5S,6R)-4-amino-3,5-dihydroxy-6-(hydroxymethyl)oxan-2-yl]oxy}-2-hydroxycyclohexyl]oxy}-3,4,5-trihydroxyoxan-2-yl]methyl}-5-[2,5-dichloro-4-({1-[4-(2-cyclopropoxyphenyl)pyridin-3-yl]cyclopropoxy}methyl)phenyl]pentanamide], for which the EC50 was below 100 nM. The same measure for `CN(CCCCc1cc(Cl)c(COC2(c3cnccc3-c3ccccc3OC3CC3)CC2)cc1Cl)C(=O)[C@@H](O)[C@@H](O)[C@H](O)[C@@H](O)CO` (stereo in doubt) [Compound I-184, (2S,3S,4R,5S)-N-{4-[2,5-dichloro-4-({1-[4-(2-cyclopropoxyphenyl)pyridin-3-yl]cyclopropoxy}methyl)phenyl]butyl}-2,3,4,5,6-pentahydroxy-N-methylhexanamide]: below 100 nM; for `O=C(NCCCCc1cc(Cl)c(COC2(c3cnccc3-c3ccccc3OC3CC3)CC2)cc1Cl)[C@@H](O)[C@@H](O)[C@H](O)[C@@H](O)CO` (stereo in doubt) [Compound I-185, (2S,3S,4R,5S)-N-{4-[2,5-dichloro-4-({1-[4-(2-cyclopropoxyphenyl)pyridin-3-yl]cyclopropoxy}methyl)phenyl]butyl}-2,3,4,5,6-pentahydroxyhexanamide]: below 100 nM; for `O=C(O)COCC(=O)N(CCCCc1cc(Cl)c(COC2(c3cnccc3-c3ccccc3OC3CC3)CC2)cc1Cl)C[C@H](O)[C@@H](O)[C@H](O)[C@H](O)CO` (stereo in doubt) [Compound I-186, 2-[({4-[2,5-dichloro-4-({1-[4-(2-cyclopropoxyphenyl)pyridin-3-yl]cyclopropoxy}methyl)phenyl]butyl}[(2S,3R,4R,5R)-2,3,4,5,6-pentahydroxyhexyl]carbamoyl)methoxy]acetic acid]: 126 to 1000 nM. The result for `O=C(O)CCC(=O)N(CCCCc1cc(Cl)c(COC2(c3cnccc3-c3ccccc3OC3CC3)CC2)cc1Cl)C[C@H](O)[C@@H](O)[C@H](O)[C@H](O)CO` (stereo in doubt) [Compound I-187, 3-({4-[2,5-dichloro-4-({1-[4-(2-cyclopropoxyphenyl)pyridin-3-yl]cyclopropoxy}methyl)phenyl]butyl}[(2S,3R,4R,5R)-2,3,4,5,6-pentahydroxyhexyl]carbamoyl)propanoic acid] reads below 100 nM; that for `CN(CCCCc1cc(Cl)c(COC2(c3cnccc3-c3ccccc3OC3CC3)CC2)cc1Cl)C(=O)[C@@H](O)[C@@H](O)[C@H](O)[C@@H](O)CN1CCOCC1` (stereo in doubt) [Compound I-189, (2S,3S,4R,5S)-N-{4-[2,5-dichloro-4-({1-[4-(2-cyclopropoxyphenyl)pyridin-3-yl]cyclopropoxy}methyl)phenyl]butyl}-2,3,4,5-tetrahydroxy-N-methyl-6-(morpholin-4-yl)hexanamide], below 100 nM. The result for `Cc1cc(COC2(c3cnccc3-c3ccccc3OC3COC3)CC2)c(Cl)cc1CCCCNC(=O)NC[C@H](O)[C@@H](O)[C@H](O)[C@H](O)CO` (stereo in doubt) [Compound I-190, 1-(4-{5-chloro-2-methyl-4-[(1-{4-[2-(oxetan-3-yloxy)phenyl]pyridin-3-yl}cyclopropoxy)methyl]phenyl}butyl)-3-[(2S,3R,4R,5R)-2,3,4,5,6-pentahydroxyhexyl]urea] reads below 100 nM; that for `CN(C[C@H](O)[C@@H](O)[C@H](O)[C@H](O)CO)C(=O)NS(=O)(=O)NCCCCc1cc(Cl)c(COC2(c3cnccc3-c3ccccc3OC3CC3)CC2)cc1Cl` (stereo in doubt) [Compound I-194, 1-({4-[2,5-dichloro-4-({1-[4-(2-cyclopropoxyphenyl)pyridin-3-yl]cyclopropoxy}methyl)phenyl]butyl}sulfamoyl)-3-methyl-3-[(2S,3R,4R,5R)-2,3,4,5,6-pentahydroxyhexyl]urea], below 100 nM; that for `O=C(O)CNC(=O)N(CCCCc1cc(Cl)c(COC2(c3cnccc3-c3ccccc3OC3CC3)CC2)cc1Cl)C[C@H](O)[C@@H](O)[C@H](O)[C@H](O)CO` (stereo in doubt) [Compound I-197, 2-[({4-[2,5-dichloro-4-({1-[4-(2-cyclopropoxyphenyl)pyridin-3-yl]cyclopropoxy}methyl)phenyl]butyl}[(2S,3R,4R,5R)-2,3,4,5,6-pentahydroxyhexyl]carbamoyl)amino]acetic acid], 126 to 1000 nM. Take `CN(CCCCc1cc(Cl)c(COC2(c3cnccc3-c3ccccc3OC3CC3)CC2)cc1Cl)C(=O)NC[C@H](O)[C@@H](O)[C@H](O)[C@H](O)CO` (stereo in doubt) [Compound I-204, 1-{4-[2,5-dichloro-4-({1-[4-(2-cyclopropoxyphenyl)pyridin-3-yl]cyclopropoxy}methyl)phenyl]butyl}-1-methyl-3-[(2S,3R,4R,5R)-2,3,4,5,6-pentahydroxyhexyl]urea]: the EC50 was below 100 nM. The same measure for `NC(=O)CN(C[C@H](O)[C@@H](O)[C@H](O)[C@H](O)CO)C(=O)CCCCc1cc(Cl)c(COC2(c3cnccc3-c3ccccc3OC3CC3)CC2)cc1Cl` (stereo in doubt) [Compound I-208, N-(carbamoylmethyl)-5-[2,5-dichloro-4-({1-[4-(2-cyclopropoxyphenyl)pyridin-3-yl]cyclopropoxy}methyl)phenyl]-N-[(2S,3R,4R,5R)-2,3,4,5,6-pentahydroxyhexyl]pentanamide]: below 100 nM.

Consider `CCN(CCCCc1cc(Cl)c(COC2(c3cnccc3-c3ccccc3OC3CC3)CC2)cc1Cl)C(=O)[C@@H](O)[C@@H](O)[C@H](O)[C@@H](O)CO` (stereo in doubt) [Compound I-209, (2S,3S,4R,5S)-N-{4-[2,5-dichloro-4-({1-[4-(2-cyclopropoxyphenyl)pyridin-3-yl]cyclopropoxy}methyl)phenyl]butyl}-N-ethyl-2,3,4,5,6-pentahydroxyhexanamide], for which the EC50 is below 100 nM. The result for `CC(C)N(CCCCc1cc(Cl)c(COC2(c3cnccc3-c3ccccc3OC3CC3)CC2)cc1Cl)C(=O)[C@@H](O)[C@@H](O)[C@H](O)[C@@H](O)CO` (stereo in doubt) [Compound I-210, (2S,3S,4R,5S)-N-{4-[2,5-dichloro-4-({1-[4-(2-cyclopropoxyphenyl)pyridin-3-yl]cyclopropoxy}methyl)phenyl]butyl}-2,3,4,5,6-pentahydroxy-N-(propan-2-yl)hexanamide] reads below 100 nM.
